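A five-concentration, 48-hour dose response in 96-well plates underlies each endpoint, interpolated linearly between surrounding concentrations. GI50 = concentration required for 50% inhibition of growth.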 Calls of active or inactive are those of the source. Cut-off read from the data, not from the text of the source: active = GI50 up to about 1.1 µM and inactive = higher. Some results are limits rather than exact numbers.

Test systems include DLD-1; DMS-114; DMS-273; KM-20L2; LXFL 529; RXF 631; XF498; BT-549; NCI/ADR-RES.
Holding throughout (assay): DTP human tumour cell line panel, 48 h

As to `COc1ccc(C(=O)Nc2ccccc2)cc1[N+](=O)[O-]`, the GI50 (usually the concentration that inhibits growth by half) is > 100 µM (inactive) in the test on DLD-1; 52.4 µM (inactive) in the test with DMS-114; > 100 µM (inactive) in the test with DMS-273; > 100 µM (inactive) with KM-20L2; > 100 µM (inactive) with LXFL 529; > 100 µM (inactive) with RXF 631. The GI50 with XF498 is > 100 µM (inactive).
On to `CCOC(=O)c1c(CN2CCNCC2)nc2ccc(Cl)cc2c1-c1ccccc1`, for which the GI50 was 13.1 µM (inactive) in the test with BT-549; 2.98 µM (inactive) in the test on DLD-1; 1.91 µM (inactive) in the test with DMS-114; 2.32 µM (inactive) in the test with DMS-273; 2.64 µM (inactive) with KM-20L2; 1.74 µM (inactive) in the test on LXFL 529. The GI50 in the test with RXF 631 is 2.56 µM (inactive); in the test with XF498, 3.15 µM (inactive).
`O=C(c1cccc2ccccc12)N1CCC(C2CCN(C(=O)c3cccc4ccccc34)CC2)CC1`: the GI50 with DLD-1, in the test on DMS-114, in the test on DMS-273, with KM-20L2, in the test on LXFL 529 and in the test on RXF 631 was > 100 µM (inactive) throughout. Moreover, the GI50 in the test on XF498 is 89.3 µM (inactive).
Take `CC(NS(=O)(=O)c1ccc([N+](=O)[O-])cc1)C(=O)O` (stereo unspecified): the GI50 in the test on DLD-1, in the test on DMS-273, in the test with KM-20L2, in the test on LXFL 529, in the test with RXF 631 and in the test with XF498 was > 100 µM (inactive) each time.
Turning to `CC(=O)N1CCN(C=S)CC1`, the GI50 with DLD-1, with DMS-114, with DMS-273, in the test with KM-20L2, in the test on LXFL 529 and with RXF 631 was > 100 µM (inactive) throughout. In addition, the GI50 in the test on XF498 was > 100 µM (inactive).
In the case of `CC(=O)NNc1nc(C)c(C(=O)NNC(=O)C(=O)Nc2c(C)cccc2C)s1`, the GI50 was 45.5 µM (inactive) with DLD-1; 31.8 µM (inactive) in the test with DMS-273; 35.2 µM (inactive) with KM-20L2; 41.8 µM (inactive) in the test with LXFL 529; 26.2 µM (inactive) in the test with RXF 631.
Take `N#CSCc1nc2ccc(Cl)cc2c(-c2ccccc2)[n+]1[O-]`: the GI50 in the test with DMS-114 is 24.5 µM (inactive); in the test on KM-20L2 it was 16.6 µM (inactive); in the test on LXFL 529, 13.9 µM (inactive); in the test on RXF 631 it was 37.9 µM (inactive); in the test with XF498 it was 17.4 µM (inactive).
Regarding `O=C1CC(O)C=C1Nc1ccc(Cl)cc1` (stereo unspecified), the GI50 is 22.3 µM (inactive) in the test on DLD-1; 26.4 µM (inactive) with DMS-114; 13.1 µM (inactive) in the test on DMS-273; 0.708 µM (active) with KM-20L2; 6.76 µM (inactive) in the test with LXFL 529; 31.4 µM (inactive) with RXF 631.
On to `COc1ccc(/C=C/c2cc(OC)c(OC)c(OC)c2)cc1OC`, for which the GI50 in the test on DLD-1 is 81.5 µM (inactive); in the test with DMS-114, > 100 µM (inactive); in the test with DMS-273, > 82.2 µM (inactive); in the test with KM-20L2 it was > 100 µM (inactive); in the test with LXFL 529, 78.9 µM (inactive); in the test on RXF 631 it was > 100 µM (inactive). For the same molecule, the GI50 with XF498 was 77.8 µM (inactive).
On to `CCOC1=C2N=C(C(CC)c3ccc(F)cc3)N=C2C(=O)c2ccccc21` (stereo unspecified), for which the GI50 in the test on DLD-1 was 7.55 µM (inactive); with DMS-114 it was 22.4 µM (inactive); in the test on DMS-273, 25.6 µM (inactive); in the test with KM-20L2, 19 µM (inactive); with LXFL 529 it was 23.9 µM (inactive); in the test with XF498 it was 17.5 µM (inactive).
For `COC(=O)CC(=O)OC`, the GI50 in the test on DLD-1, in the test on DMS-114, with DMS-273, in the test on KM-20L2, in the test with LXFL 529 and with XF498 was > 100 µM (inactive) in each case.
Turning to `CCCCCC(=O)C(C)C1=Nc2nnc(CCCCCCCc3nnc4n3C(=O)C(C(C)C(=O)CCCCC)=N4)n2C1=O` (stereo unspecified), the GI50 in the test on DLD-1, in the test on DMS-114, in the test on KM-20L2, in the test with LXFL 529, in the test with RXF 631 and in the test with XF498 was > 100 µM (inactive) in each case.
On to `Cc1c2c(cc[n+]1C)O[B-](c1ccccc1)(c1ccccc1)O2`, for which the GI50 in the test with DLD-1 is 60 µM (inactive); with DMS-114 it was 61.1 µM (inactive); in the test with DMS-273 it was 36.5 µM (inactive); in the test on KM-20L2 it was 71 µM (inactive); in the test with LXFL 529, 42.9 µM (inactive); in the test on RXF 631, 67.6 µM (inactive). In addition, in the test on XF498, the GI50 was 35 µM (inactive).
With `C[C@H]1C(=O)CC[C@]2(C)CCC(C(C)(C)O)CC12O` (stereo partly specified), the GI50 with DLD-1, in the test on DMS-114, in the test on DMS-273, with KM-20L2, in the test on LXFL 529 and in the test with RXF 631 was > 100 µM (inactive) throughout.
As for `COc1ccc(C2=NC(CO)[C@H](c3ccccc3)O2)cc1OC` (stereo partly specified), the GI50 in the test on DLD-1 was 78 µM (inactive); in the test with DMS-114 it was > 100 µM (inactive); in the test on DMS-273 it was > 100 µM (inactive); in the test with KM-20L2, > 100 µM (inactive); with LXFL 529, > 100 µM (inactive); in the test on RXF 631, > 100 µM (inactive). Further, the GI50 with XF498 is > 100 µM (inactive).
With `CC1(C)C(=NNC(=O)C[N+](C)(C)C)C(C)(C)C1=NNC(=O)C[N+](C)(C)C`, the GI50 with DLD-1 is > 100 µM (inactive); in the test with DMS-114, > 100 µM (inactive); with DMS-273 it was 42.2 µM (inactive); with KM-20L2 it was > 100 µM (inactive); with LXFL 529, > 100 µM (inactive); in the test on RXF 631 it was > 100 µM (inactive). Further, in the test with XF498, the GI50 was > 100 µM (inactive).
On to `CC1=C2C(=O)[C@H]3[C@@H](CC=C4C[C@@H](O)CC[C@@]43C)[C@@H]2CC[C@]12O[C@@H]1C[C@H](C)CN[C@H]1[C@H]2C` [JERVINE], for which the GI50 in the test with BT-549 was > 100 µM (inactive); with DLD-1, 29.9 µM (inactive); in the test on DMS-114 it was 18.9 µM (inactive); with DMS-273, 22 µM (inactive); with KM-20L2, 28.9 µM (inactive); in the test on LXFL 529, 18.4 µM (inactive). The GI50 is > 100 µM (inactive) in the test on NCI/ADR-RES and 23.2 µM (inactive) in the test on RXF 631.
